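Method: 48-hour compound exposure of cells in 96-well plates, five concentrations, linear interpolation of endpoints. Abbreviation: GI50, concentration required for 50% inhibition of growth. TGI: concentration producing complete growth inhibition.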

Among the test systems are HCT-15 colon; HOP-62 NSCLC; MDA-MB-231 breast; K-562 leukemia; RPMI-8226 leukemia; BT-549 breast; NCI-H522 lung; HT29 colon; T-47D breast; 786-0 renal.
What all share (experiment): NCI-60 cell line screen, 48 h

Turning to `CCN(CC)C(=S)[S][Bi]([S]C(=S)N(CC)CC)[S]C(=S)N(CC)CC`, the GI50 in the experiment on HCT-15 colon was 0.164 µM; in the experiment on HOP-62 NSCLC, 1.9 µM; in the experiment on MDA-MB-231 breast it was 0.133 µM; in the experiment on K-562 leukemia it was 0.123 µM; in the experiment with RPMI-8226 leukemia, 0.23 µM; in the experiment with BT-549 breast it was 0.203 µM. The GI50 in the experiment on NCI-H522 lung is 0.0157 µM; in the experiment with HT29 colon, 0.052 µM; with T-47D breast, 0.122 µM; in the experiment on 786-0 renal it was 0.163 µM. In addition, the TGI in the experiment on HCT-15 colon is 0.348 µM; in the experiment with HOP-62 NSCLC it was 3.39 µM; with MDA-MB-231 breast, 0.338 µM; in the experiment on K-562 leukemia it was more than 31.6 µM; in the experiment with RPMI-8226 leukemia it was 2.15 µM; in the experiment with BT-549 breast, 0.384 µM. Also, the TGI with NCI-H522 lung stood at 0.0332 µM; in the experiment with HT29 colon, 0.229 µM; in the experiment on T-47D breast, 0.341 µM; with 786-0 renal, 0.299 µM.
As for `CN(C)CCCn1c(-c2nonc2N)nc2cnccc21`, the GI50 with HCT-15 colon, in the experiment with HOP-62 NSCLC, with MDA-MB-231 breast, in the experiment on K-562 leukemia, with RPMI-8226 leukemia and in the experiment with BT-549 breast was more than 25 µM in each case. In addition, the GI50 in the experiment on NCI-H522 lung, in the experiment on HT29 colon, in the experiment with T-47D breast and in the experiment on 786-0 renal was more than 25 µM each time. In addition, the TGI in the experiment on HCT-15 colon, in the experiment with HOP-62 NSCLC, in the experiment on MDA-MB-231 breast, with K-562 leukemia, in the experiment with RPMI-8226 leukemia and in the experiment with BT-549 breast was more than 25 µM throughout. Further, the TGI in the experiment with NCI-H522 lung, in the experiment on HT29 colon, in the experiment with T-47D breast and in the experiment with 786-0 renal was more than 25 µM each time.
Consider `CCCCCCCCCCCCCCCCCC(=O)Nc1ccn(C2OC(CO)C(O)C2O)c(=O)n1` (centres undefined), for which the TGI in the experiment with HCT-15 colon was more than 100 µM; with HOP-62 NSCLC it was more than 96.2 µM; with MDA-MB-231 breast it was more than 100 µM; in the experiment with K-562 leukemia, more than 100 µM; in the experiment on RPMI-8226 leukemia it was more than 100 µM; in the experiment on BT-549 breast, more than 91.5 µM. For the same molecule, the TGI was 75.4 µM with NCI-H522 lung, more than 100 µM with HT29 colon, more than 100 µM in the experiment with T-47D breast and more than 100 µM in the experiment with 786-0 renal.
Regarding `CCSc1ccc(C2C(Br)C(=O)N2c2cc(OC)c(OC)c(OC)c2)cc1` (centres undefined), the GI50 in the experiment on HCT-15 colon was 0.21 µM; in the experiment with HOP-62 NSCLC, 0.336 µM; with MDA-MB-231 breast, 0.488 µM; in the experiment with K-562 leukemia, 0.0545 µM; in the experiment with RPMI-8226 leukemia it was 0.361 µM; with BT-549 breast, 0.525 µM. The GI50 in the experiment with NCI-H522 lung is 0.158 µM; with HT29 colon, 0.351 µM; in the experiment with T-47D breast, 16.9 µM; with 786-0 renal it was 0.34 µM. Besides, the TGI in the experiment with HCT-15 colon is 18.2 µM; with HOP-62 NSCLC, more than 100 µM; in the experiment on MDA-MB-231 breast, 95.3 µM; with K-562 leukemia, more than 100 µM; with RPMI-8226 leukemia it was 4.37 µM; with BT-549 breast it was 11.8 µM. In addition, the TGI was determined as 4.19 µM with NCI-H522 lung, 12.3 µM in the experiment on HT29 colon, 35.7 µM with T-47D breast and 13.1 µM with 786-0 renal.
For the molecule `C[C@@H]1COCCN1c1cc(C2(O)C[C@H]3CC[C@@H](C2)O3)c2cnn(-c3ccn[nH]3)c2n1` (some centres undefined), the GI50 in the experiment on HCT-15 colon is 0.0394 µM; in the experiment with HOP-62 NSCLC, 0.0786 µM; in the experiment on MDA-MB-231 breast, 0.138 µM; in the experiment on K-562 leukemia, 0.063 µM; in the experiment on RPMI-8226 leukemia it was 0.162 µM; in the experiment with BT-549 breast, 0.049 µM. Also, the GI50 in the experiment with NCI-H522 lung was 0.141 µM; in the experiment with HT29 colon, 0.181 µM; in the experiment with T-47D breast, 0.122 µM; in the experiment on 786-0 renal, 0.0479 µM. In addition, the TGI is more than 42.2 µM in the experiment on HCT-15 colon; 1.41 µM in the experiment with HOP-62 NSCLC; 5.68 µM in the experiment on MDA-MB-231 breast; more than 100 µM in the experiment on K-562 leukemia; 3.72 µM with RPMI-8226 leukemia; 0.784 µM in the experiment with BT-549 breast. The TGI is 1.01 µM in the experiment with NCI-H522 lung, more than 100 µM in the experiment on HT29 colon, 0.734 µM in the experiment on T-47D breast and more than 100 µM in the experiment with 786-0 renal.
For the molecule `O=C(O)/C(=C\c1ccncc1)c1cccc2ccccc12`, the TGI with HCT-15 colon, with HOP-62 NSCLC, with MDA-MB-231 breast, with K-562 leukemia, in the experiment on RPMI-8226 leukemia and with BT-549 breast was more than 100 µM each time. Moreover, the TGI with NCI-H522 lung, with HT29 colon, in the experiment with T-47D breast and in the experiment with 786-0 renal was more than 100 µM each time.
With `Cc1cccc(Cc2cnc(NC(=O)CCc3ccc(C)o3)s2)c1`, the GI50 is 0.0729 µM in the experiment with HCT-15 colon; 0.345 µM in the experiment with HOP-62 NSCLC; 0.45 µM in the experiment on MDA-MB-231 breast; 0.0541 µM with K-562 leukemia; 0.318 µM in the experiment on RPMI-8226 leukemia; 0.814 µM in the experiment with BT-549 breast. For the same molecule, the GI50 in the experiment with NCI-H522 lung is 0.183 µM; in the experiment on HT29 colon, 0.169 µM; in the experiment on T-47D breast it was 0.427 µM; in the experiment with 786-0 renal, 0.724 µM. Further, the TGI was more than 100 µM with HCT-15 colon; more than 55.6 µM with HOP-62 NSCLC; 23.8 µM in the experiment with MDA-MB-231 breast; more than 100 µM with K-562 leukemia; more than 100 µM in the experiment on RPMI-8226 leukemia; more than 100 µM in the experiment with BT-549 breast. Besides, the TGI was 4.04 µM with HT29 colon, more than 100 µM with T-47D breast and more than 100 µM in the experiment on 786-0 renal.
